Test results taken from US10544151B2, “Compounds and uses thereof” (Kala Pharmaceuticals, Inc., priority 2013, dated 2020).

Assays:
[1] = Physical and chemical stability of I-2 solutions at room temperature; format: physicochemical; details: F127 (0.5%), 20 mM Tris (pH 8)
Experimental: Solutions of I-2 were formulated with F127 or Tween 80, and under a range of pH values. Briefly, I-2 was first completely solubilized using an acidic solution (0.1 N HCl) at a high concentration of ˜5% (wiv). The final formulation was diluted to a solution consisting of 0.5% (wiv) I-2 into buffered solution containing F127 or Tween 80 as described in Table 5. Following dilution, the pH of the formulations was measured using pH indicator strips (PEHANON) and confirmed to be within expected range (±0.5 units of target pH).
Physical and chemical stability of the solutions at room temperature (20-25° C.) were assessed after 7-10 days (tfinal). Physical instability in a solution can manifest as the precipitation and sedimentation of the drug of interest and excipients over time. To assess physical stability, the formulations at tfinal were first filtered through a 300 kDa modified polyethersulfone filter membrane (Nanosep) to remove any precipitate in the solution. The concentration of I-2 in the filtrates was then measured and compared to that at t=0. The purity of I-2 in the unfiltered solution was also evaluated at tfinal, to further confirm chemical stability. This parameter is defined by the area under the signal peak that is attributed to compound I-2 as a percentage of all peaks reported by in the sample by HPLC (% peak area).

[2] = Draize-Ocular Irritation assessment; format: in vivo, Dutch-belted rabbits; details: topical I-2 solution formulations, during PK studies

## Cc1cc(C(=O)Nc2cc(Oc3ccc4nc(NC(=O)CN5CC[C@H](N(C)C)C5)cn4n3)ccc2C)n(C)n1 [Compound I-2]
[1]
  physical stability of solution: major physical instability
[2]
  Draize-Ocular Irritation: no irritation
